Data from patent publication US11643421B2, “Process for the preparation of tricyclic PI3K inhibitor compounds and methods for using the same for the treatment of cancer” (priority 2015, dated 2023).
Where two headings read alike, the source gives them in different places.

Key:
CLK3 = CLK3 (Homo sapiens, UniProt P49761); test: biochemical; details: read-out: % inhib
NEK7 = NEK7 (Homo sapiens, UniProt Q8TDX7); test: biochemical; details: read-out: % inhib
EphB3 = EphB3 (Homo sapiens, UniProt P54753); test: biochemical; details: read-out: % inhib
Chain of EphB3 (P54753 34-998): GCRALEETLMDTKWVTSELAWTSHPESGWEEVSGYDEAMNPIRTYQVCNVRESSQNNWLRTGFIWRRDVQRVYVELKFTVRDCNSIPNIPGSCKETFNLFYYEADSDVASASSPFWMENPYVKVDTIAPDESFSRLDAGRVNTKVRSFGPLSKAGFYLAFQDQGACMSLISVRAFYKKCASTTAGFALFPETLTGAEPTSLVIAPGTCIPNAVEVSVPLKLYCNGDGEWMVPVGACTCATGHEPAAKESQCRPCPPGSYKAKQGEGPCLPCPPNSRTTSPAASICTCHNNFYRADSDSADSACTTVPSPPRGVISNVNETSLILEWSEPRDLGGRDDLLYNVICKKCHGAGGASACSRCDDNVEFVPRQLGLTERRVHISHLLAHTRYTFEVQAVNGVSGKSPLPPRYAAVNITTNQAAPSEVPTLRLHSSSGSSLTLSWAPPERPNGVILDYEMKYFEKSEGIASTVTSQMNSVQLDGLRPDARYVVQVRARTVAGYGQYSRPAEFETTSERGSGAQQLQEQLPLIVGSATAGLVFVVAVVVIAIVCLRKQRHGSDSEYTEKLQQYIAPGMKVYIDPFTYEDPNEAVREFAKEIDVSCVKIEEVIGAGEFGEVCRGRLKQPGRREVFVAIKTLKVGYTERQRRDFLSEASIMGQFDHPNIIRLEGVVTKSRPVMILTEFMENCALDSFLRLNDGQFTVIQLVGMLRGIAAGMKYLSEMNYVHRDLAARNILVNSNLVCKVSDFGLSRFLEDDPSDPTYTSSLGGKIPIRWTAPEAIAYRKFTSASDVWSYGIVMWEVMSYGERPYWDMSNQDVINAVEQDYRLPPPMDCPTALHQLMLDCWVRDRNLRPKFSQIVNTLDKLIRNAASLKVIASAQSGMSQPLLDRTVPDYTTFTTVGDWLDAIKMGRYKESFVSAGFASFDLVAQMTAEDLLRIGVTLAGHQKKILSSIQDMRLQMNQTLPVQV

ErbB4 = ErbB4 (Homo sapiens, UniProt Q15303); test: biochemical; details: read-out: % inhib
Chain of ErbB4 (Q15303 26-1308): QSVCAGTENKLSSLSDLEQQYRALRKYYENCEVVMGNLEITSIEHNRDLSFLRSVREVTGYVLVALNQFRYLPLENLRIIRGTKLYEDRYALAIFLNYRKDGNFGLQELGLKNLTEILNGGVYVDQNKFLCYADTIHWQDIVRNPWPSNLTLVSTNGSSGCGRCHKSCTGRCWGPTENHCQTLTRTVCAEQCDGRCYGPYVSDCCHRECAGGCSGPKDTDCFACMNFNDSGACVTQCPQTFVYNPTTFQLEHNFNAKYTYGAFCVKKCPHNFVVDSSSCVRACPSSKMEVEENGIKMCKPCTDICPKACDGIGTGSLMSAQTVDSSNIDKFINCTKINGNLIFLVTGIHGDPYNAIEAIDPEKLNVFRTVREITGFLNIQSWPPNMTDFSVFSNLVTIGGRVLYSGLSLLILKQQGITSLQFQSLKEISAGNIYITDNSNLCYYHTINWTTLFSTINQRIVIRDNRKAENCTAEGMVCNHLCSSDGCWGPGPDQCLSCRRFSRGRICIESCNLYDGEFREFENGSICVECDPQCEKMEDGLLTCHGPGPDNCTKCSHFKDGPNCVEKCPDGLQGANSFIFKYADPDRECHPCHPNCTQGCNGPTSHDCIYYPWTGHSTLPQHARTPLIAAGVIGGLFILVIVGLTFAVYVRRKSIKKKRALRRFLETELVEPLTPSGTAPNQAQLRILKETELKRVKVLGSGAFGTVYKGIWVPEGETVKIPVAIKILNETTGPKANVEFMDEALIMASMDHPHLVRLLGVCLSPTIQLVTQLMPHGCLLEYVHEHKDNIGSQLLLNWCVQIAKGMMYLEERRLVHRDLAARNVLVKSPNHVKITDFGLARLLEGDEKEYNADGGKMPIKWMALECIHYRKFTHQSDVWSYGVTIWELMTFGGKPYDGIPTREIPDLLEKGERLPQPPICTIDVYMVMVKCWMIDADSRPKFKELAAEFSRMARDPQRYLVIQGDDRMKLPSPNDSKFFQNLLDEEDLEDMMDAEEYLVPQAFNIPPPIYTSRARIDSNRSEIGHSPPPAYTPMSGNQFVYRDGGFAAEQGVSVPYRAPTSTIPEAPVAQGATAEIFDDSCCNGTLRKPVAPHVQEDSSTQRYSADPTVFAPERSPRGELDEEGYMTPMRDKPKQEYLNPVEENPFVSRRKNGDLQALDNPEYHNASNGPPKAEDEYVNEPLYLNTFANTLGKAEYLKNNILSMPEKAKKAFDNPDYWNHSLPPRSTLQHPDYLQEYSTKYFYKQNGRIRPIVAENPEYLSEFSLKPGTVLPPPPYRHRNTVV

ZAP-70 = ZAP-70 (Homo sapiens, UniProt P43403); test: biochemical; details: read-out: % inhib
Chain of ZAP-70 (P43403 whole entry, species assumed): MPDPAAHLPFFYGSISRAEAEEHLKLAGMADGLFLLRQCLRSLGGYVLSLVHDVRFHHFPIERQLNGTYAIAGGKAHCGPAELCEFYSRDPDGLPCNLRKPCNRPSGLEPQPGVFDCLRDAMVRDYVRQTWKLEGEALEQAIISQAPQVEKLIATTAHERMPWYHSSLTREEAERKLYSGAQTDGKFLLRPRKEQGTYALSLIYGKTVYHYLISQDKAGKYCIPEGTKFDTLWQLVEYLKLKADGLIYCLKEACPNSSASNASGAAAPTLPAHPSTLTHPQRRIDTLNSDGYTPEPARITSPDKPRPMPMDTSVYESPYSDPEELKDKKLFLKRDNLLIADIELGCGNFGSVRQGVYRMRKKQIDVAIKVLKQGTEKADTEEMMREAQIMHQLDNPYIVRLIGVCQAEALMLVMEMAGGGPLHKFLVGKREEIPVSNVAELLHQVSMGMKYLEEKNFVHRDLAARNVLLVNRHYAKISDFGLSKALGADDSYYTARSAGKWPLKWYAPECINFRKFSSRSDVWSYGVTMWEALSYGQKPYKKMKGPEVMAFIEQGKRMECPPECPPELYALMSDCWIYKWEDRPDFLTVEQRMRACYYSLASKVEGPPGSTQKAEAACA

pAKT = test: pAKT/total AKT in U87 MG/M xenograft tumors; format: in vivo, mice; details: 0.5, 3, 10, 18 mg/kg, 24 days continuous dosing, 1 hour and 4 hours post dose
Description: The effect of compound IIIat on the pharmacodynamics (PD) marker pAKT in the U87 MG/M human glioblastoma xenograft model after 24 days of continuous dosing at dosage rates of 0.5 mg/kg, 3 mg/kg, 10 mg/kg and 18 mg/kg was evaluated. Tumors were excised from animals 1 hour and 4 hours after the last administered dose on day 24 and processed for analysis of pAKT and total AKT. The results are reported in FIG. 4 as a ratio of pAKT to total AKT wherein indicated values are the means for groups of 3 animals and error bars indicate ±standard error of the mean. Levels of pAKT^Ser473 and total AKT were measured by electrochemiluminescence using Meso Scale Discovery according to manufacturer's instructions (Gaithersburg, Md.).

TBK1 = TBK1 (Homo sapiens, UniProt Q9UHD2); test: biochemical; details: read-out: % inhib
Chain of TBK1 (Q9UHD2 whole entry, species assumed): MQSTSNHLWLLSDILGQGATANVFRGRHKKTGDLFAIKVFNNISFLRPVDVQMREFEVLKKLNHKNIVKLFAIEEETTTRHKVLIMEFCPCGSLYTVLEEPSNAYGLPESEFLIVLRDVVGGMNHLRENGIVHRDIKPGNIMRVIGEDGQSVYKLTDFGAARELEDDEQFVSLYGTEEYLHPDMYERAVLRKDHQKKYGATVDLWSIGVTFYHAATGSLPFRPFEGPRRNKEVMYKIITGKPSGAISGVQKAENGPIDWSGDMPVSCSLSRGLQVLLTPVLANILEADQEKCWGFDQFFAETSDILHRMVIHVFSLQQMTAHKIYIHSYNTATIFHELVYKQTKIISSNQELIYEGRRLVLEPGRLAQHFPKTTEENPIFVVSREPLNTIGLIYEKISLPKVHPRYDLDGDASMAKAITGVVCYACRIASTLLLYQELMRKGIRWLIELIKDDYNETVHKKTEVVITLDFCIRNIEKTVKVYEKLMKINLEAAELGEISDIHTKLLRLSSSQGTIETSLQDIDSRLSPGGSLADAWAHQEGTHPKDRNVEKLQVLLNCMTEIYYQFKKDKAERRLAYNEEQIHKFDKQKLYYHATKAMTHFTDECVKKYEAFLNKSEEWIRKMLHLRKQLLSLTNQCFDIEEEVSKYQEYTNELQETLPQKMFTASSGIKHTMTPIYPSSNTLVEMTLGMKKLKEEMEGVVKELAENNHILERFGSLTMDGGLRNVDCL

CHK1 = CHK1 (Homo sapiens, UniProt O14757); test: biochemical; details: read-out: % inhib
Chain of CHK1 (O14757 whole entry, species assumed): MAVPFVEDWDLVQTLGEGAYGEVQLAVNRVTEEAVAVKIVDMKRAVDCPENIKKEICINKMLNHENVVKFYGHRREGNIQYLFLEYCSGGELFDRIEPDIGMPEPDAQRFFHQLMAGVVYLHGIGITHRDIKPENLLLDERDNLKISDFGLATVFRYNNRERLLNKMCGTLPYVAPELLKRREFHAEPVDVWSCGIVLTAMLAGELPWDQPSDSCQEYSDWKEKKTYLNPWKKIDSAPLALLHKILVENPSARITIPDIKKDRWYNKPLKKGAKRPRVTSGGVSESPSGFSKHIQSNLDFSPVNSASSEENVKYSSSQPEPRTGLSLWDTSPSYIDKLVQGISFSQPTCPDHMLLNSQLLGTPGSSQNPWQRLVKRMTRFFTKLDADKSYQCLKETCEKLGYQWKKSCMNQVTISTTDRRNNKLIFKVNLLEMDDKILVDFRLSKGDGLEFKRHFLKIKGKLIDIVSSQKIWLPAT

Frk = Frk (Homo sapiens, UniProt P42685); test: biochemical; details: read-out: % inhib
EphA2 = EphA2 (Homo sapiens, UniProt P29317); test: biochemical; details: read-out: % inhib
Chain of EphA2 (P29317 24-976, species assumed): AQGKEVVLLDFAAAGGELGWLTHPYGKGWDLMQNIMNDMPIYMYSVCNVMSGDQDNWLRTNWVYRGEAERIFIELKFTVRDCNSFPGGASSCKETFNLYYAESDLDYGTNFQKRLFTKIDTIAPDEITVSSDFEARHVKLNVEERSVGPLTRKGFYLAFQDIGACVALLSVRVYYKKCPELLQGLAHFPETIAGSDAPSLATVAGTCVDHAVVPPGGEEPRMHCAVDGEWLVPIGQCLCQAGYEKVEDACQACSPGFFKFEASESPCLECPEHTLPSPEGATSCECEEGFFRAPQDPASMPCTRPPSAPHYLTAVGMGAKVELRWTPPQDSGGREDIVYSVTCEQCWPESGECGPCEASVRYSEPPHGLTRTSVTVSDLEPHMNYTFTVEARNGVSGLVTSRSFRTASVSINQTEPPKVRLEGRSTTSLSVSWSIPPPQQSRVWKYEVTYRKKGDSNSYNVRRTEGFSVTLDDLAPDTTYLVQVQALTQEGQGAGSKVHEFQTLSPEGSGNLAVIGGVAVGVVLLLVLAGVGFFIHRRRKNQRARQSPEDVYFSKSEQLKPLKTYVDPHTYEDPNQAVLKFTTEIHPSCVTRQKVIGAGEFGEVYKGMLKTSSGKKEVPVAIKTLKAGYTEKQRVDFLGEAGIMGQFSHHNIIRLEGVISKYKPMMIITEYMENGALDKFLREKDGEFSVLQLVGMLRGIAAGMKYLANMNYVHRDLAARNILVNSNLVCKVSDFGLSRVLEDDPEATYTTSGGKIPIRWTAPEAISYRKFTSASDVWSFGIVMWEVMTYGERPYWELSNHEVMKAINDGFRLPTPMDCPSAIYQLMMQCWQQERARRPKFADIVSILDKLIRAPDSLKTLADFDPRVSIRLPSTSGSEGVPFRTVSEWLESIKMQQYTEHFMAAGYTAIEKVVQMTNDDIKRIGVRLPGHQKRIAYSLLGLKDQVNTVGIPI

MST1 = MST1 (Homo sapiens, UniProt Q13043); test: biochemical; details: read-out: % inhib
[1] = Plasma and brain concentrations in GS2 tumor-bearing mice; format: in vivo; details: mouse, 15 mg/kg PO; for concentration at 2 h: 2 h post-dose; for concentration at 8 h: 8 h post-dose
[2] = Phase I study, brain tumor and brain tissue concentration; format: in vivo, human; details: concentration from brain tumor tissue, patients
[3] = In vivo pharmacokinetics IV and PO; set-up: species or system female CD-1 mice; details: Mouse
Description: (§1) The hepatocyte stability of compound IIIat was evaluated across preclinical species. Certain in vivo pharmacokinetic parameters were also evaluated. […] Male Sprague-Dawley rats, female CD-1 mice, male cynomolgus monkeys and beagle dogs were dosed intravenously with 1 mg/kg of compound IIIat prepared in 60% PEG400/10% Ethanol. Compound IIIat was administered orally (PO) at the indicated dose in 0.5% methylcellulose with 0.2% Tween 80 (MCT).

[4] = In vivo pharmacokinetics IV and PO; set-up: species or system Male Sprague-Dawley rats; details: Rat
Description: as §1

MEK1 = MEK1 (Homo sapiens, UniProt Q02750); test: biochemical; details: read-out: % inhib
[5] = Plasma protein binding (PPB %); format: in vitro ADME, cynomolgus monkeys; details: cynomolgus monkey
Description: as §1

pS6 = test: Modulation of pS6 in the brain of healthy mice; format: in vivo, Female CD-1 mice; details: single oral dose 25 mg/kg
Description: Inhibition of the PI3K pathway was assessed in the brain of healthy mice through measurement of two markers, pAkt and pS6. […] Brains and plasma were collected at 1 and 6 hours post-dose, from 3 animals at each time point. […] For PD analysis, cell extraction buffer (Invitrogen, Camarillo, Calif.) containing 10 mM Tris pH 7.4, 100 mM NaCl, 1 mM EDTA, 1 mM EGTA, 1 mM NaF, 20 mM Na4P2O7, 2 mM Na3VO4, 1% Triton X-100, 10% glycerol, 0.1% SDS, and 0.5% deoxycholate was supplemented with phosphatase, protease inhibitors (Sigma, St. Louis, Mo.) and 1 mM PMSF and added to frozen brain biopsies. Brains were homogenized with a small pestle (Konte Glass Company, Vineland, N.J.), sonicated briefly on ice, and centrifuged at 20,000 g for 20 minutes at 4° C. Protein concentration was determined using BCA protein assay (Pierce, Rockford, Ill.). Proteins were separated by electrophoresis and transferred to NuPage nitrocellulose membranes (Invitrogen, Camarillo, Calif.). Licor Odyssey Infrared detection system (Licor, Lincoln, Nebr.) was used to assess and quantify protein expression. […] The differences in marker levels between the treated and control mice were evaluated using the Student's t-test (Prism 5, GraphPad).

[6] = non-tumored half of the brain, read-out: Brain

CC1(C)OCCn2c1nc1c(N3CCOCC3)nc(-c3cnc(N)nc3)nc12 [GDC-0084, 5-(6,6-dimethyl-4-morpholino-8,9-dihydro-6H-[1,4]oxazino[3,4-e]purin-2-yl)pyrimidin-2-amine]
inhibition at 1 µM (CLK3): 7% | inhibition at 1 µM (NEK7): -0.3% | inhibition at 1 µM (EphB3): -0.1% | inhibition at 1 µM (ErbB4): 7% | inhibition at 1 µM (ZAP-70): -0.9% | inhibition of pAKT (pAKT/total AKT) in U87 tumors (pAKT): Dose and concentration dependent inhibition of pAKT | inhibition at 1 µM (TBK1): 4% | inhibition at 1 µM (CHK1): 0.6% | inhibition at 1 µM (Frk): 8% | inhibition at 1 µM (EphA2): -0.7% | inhibition at 1 µM (MST1): 5% | concentration at 2 h ([1]; plasma, read-out: Plasma): 3.64 ± 2.05 µM | concentration at 8 h ([1]; plasma, read-out: Plasma): 2.01 ± 1.19 µM | concentration at 2 h [1, 6]: 5.51 ± 1.58 µM | concentration at 8 h [1, 6]: 2.48 ± 1.25 µM | blood brain barrier crossing and brain distribution [2]: crosses the blood brain barrier and uniformly distributes throughout the brain | In vivo Cl ([3]; IV 1 mg/kg): 17 mL/min/kg | AUC ([3]; PO 25 mg/kg in MCT): 47 μm·h | Cmax ([3]; PO 25 mg/kg in MCT): 4.6 μm | F % ([3]; PO 25 mg/kg in MCT): 75% | In vivo Cl ([4]; IV 1 mg/kg): 28 mL/min/kg | Cmax ([4]; PO 5 mg/kg in MCT): 1.1 μm | F % ([4]; PO 5 mg/kg in MCT): 77% | inhibition at 1 µM (MEK1): -0.1% | fraction unbound [5]: 0.25 | Suppression of pS6 in brain (pS6; 1 hour post dose): 90% | Suppression of pS6 in brain (pS6; 6 hours after dosing): greater than 70%
